Measured values: patent publication US6211214A, “Biphenyl ether oxazolines and their use as pest-control agents” (Bayer Aktiengesellschaft, priority 1995, dated 2001)
Read-outs that look alike come from different tables or passages of the source.

Assay: log p (partition coefficient octanol/water, determined experimentally from reversed phase HPLC)
Format: physicochemical
Settings: for chromatographic logP: reversed phase hplc
Text: [log p=logarithm of the partition coefficient p of the substance between the solvents octanol and water, determined experimentally from reversed phase HPLC]

| chromatographic logP | chromatographic logP (A isomer) | chromatographic logP (B isomer) | SMILES | further results |
| --- | --- | --- | --- | --- |
| 5.12 | – | – | CCON=C(C)C(C)Oc1ccc(-c2ccc(C3COC(c4c(F)cccc4F)=N3)cc2)cc1 (single isomer, unassigned) [Example 70] | – |
| 5.4 | – | – | CCON=C(C)C(C)Oc1ccc(-c2ccc(C3COC(c4ccccc4Cl)=N3)cc2)cc1 (single isomer, unassigned) [Example 85] | – |
| 4.12 | – | – | CCOC(=O)C(C)Oc1ccc(-c2ccc(C3COC(c4c(F)cccc4F)=N3)cc2)cc1 (stereo not drawn) [Example 3, 2-(2,6-difluorophenyl)-4-[4'-(1-ethoxycarbonyl-eth-1-yl-oxy)-biphenyl-4-yl]-1,3-oxazoline] | – |
| 4.53 | – | – | CCOC(=O)C(CC)Oc1ccc(-c2ccc(C3COC(c4c(F)cccc4F)=N3)cc2)cc1 (stereo not drawn) [Example 11] | – |
| – | – | – | CCOC(=O)C(C)Oc1ccc(-c2ccc(C3COC(c4c(F)cccc4F)=N3)cc2)cc1 (stereo not drawn) [Example 12] | log p: 3.80 |
| 3.35 | – | – | CCN(CC)C(=O)COc1ccc(-c2ccc(C3COC(c4c(F)cccc4F)=N3)cc2)cc1 (stereo not drawn) [Example 15] | – |
| 4.45 | – | – | CC(C)C(C#N)Oc1ccc(-c2ccc(C3COC(c4c(F)cccc4F)=N3)cc2)cc1 (stereo not drawn) [Example 17] | – |
| 4.18 | – | – | CCC(Oc1ccc(-c2ccc(C3COC(c4c(F)cccc4F)=N3)cc2)cc1)C(=O)OC (stereo not drawn) [Example 19] | – |
| – | 4.62 | 4.71 | CON=C(C)C(C)Oc1ccc(-c2ccc(C3COC(c4c(F)cccc4F)=N3)cc2)cc1 (stereo not drawn) [Example 23] | – |
| – | – | – | CO/N=C(/COc1ccc(-c2ccc(C3COC(c4c(F)cccc4F)=N3)cc2)cc1)C1CC1 (stereo not drawn) [Example 24] | chromatographic logP (E isomer): 4.9 |
| – | – | 4.76 | CCON=C(C)COc1ccc(-c2ccc(C3COC(c4c(F)cccc4F)=N3)cc2)cc1 (stereo not drawn) [Example 25] | – |
| – | 4.9 | 4.56 | CON=C(COc1ccc(-c2ccc(C3COC(c4c(F)cccc4F)=N3)cc2)cc1)C1CC1 (stereo not drawn) [Example 26] | – |
| 3.07 | – | – | CON(C)C(=O)COc1ccc(-c2ccc(C3COC(c4c(F)cccc4F)=N3)cc2)cc1 (stereo not drawn) [Example 34] | – |
| 4.44 | – | – | CCOC(COc1ccc(-c2ccc(C3COC(c4c(F)cccc4F)=N3)cc2)cc1)OCC (stereo not drawn) [Example 43] | – |
| 3.76 | – | – | C=CCN(CC=C)C(=O)COc1ccc(-c2ccc(C3COC(c4c(F)cccc4F)=N3)cc2)cc1 (stereo not drawn) [Example 47] | – |
| – | 5.02 | 5.13 | CCON=C(C)C(C)Oc1ccc(-c2ccc(C3COC(c4c(F)cccc4F)=N3)cc2)cc1 (stereo not drawn) [Example 48] | – |
| 4.38 | – | – | O=C(COc1ccc(-c2ccc(C3COC(c4ccccc4Cl)=N3)cc2)cc1)c1ccccc1 (stereo not drawn) [Example 49] | – |
| 5.4 | – | – | CON=C(COc1ccc(-c2ccc(C3COC(c4ccccc4Cl)=N3)cc2)cc1)c1ccccc1 (stereo not drawn) [Example 52] | – |
| 4.04 | – | – | O=C(COc1ccc(-c2ccc(C3COC(c4c(F)cccc4F)=N3)cc2)cc1)C1(Cl)CC1 (stereo not drawn) [Example 54] | – |
| – | 5.09 | 4.78 | CON=C(COc1ccc(-c2ccc(C3COC(c4c(F)cccc4F)=N3)cc2)cc1)C1(Cl)CC1 (stereo not drawn) [Example 55] | – |
| – | 5.28 | 4.92 | CCON=C(COc1ccc(-c2ccc(C3COC(c4c(F)cccc4F)=N3)cc2)cc1)C1CC1 (stereo not drawn) [Example 56] | – |
| – | 5.49 | 4.85 | CCON=C(COc1ccc(-c2ccc(C3COC(c4c(F)cccc4F)=N3)cc2)cc1)C1(Cl)CC1 (stereo not drawn) [Example 57] | – |

| chromatographic logP | chromatographic logP (A isomer) | chromatographic logP (B isomer) | SMILES | further results |
| --- | --- | --- | --- | --- |
| – | 5.44 | 5.56 | CCON=C(C)C(C)Oc1ccc(-c2ccc(C3COC(c4ccccc4Cl)=N3)cc2)cc1 (stereo not drawn) [Example 59] | – |
| 5.24 | – | – | CCCCC(Oc1ccc(-c2ccc(C3COC(c4c(F)cccc4F)=N3)cc2)cc1)C(=O)OCC (stereo not drawn) [Example 61] | – |
| – | 5.31 | 5.42 | CCON=C(C)C(C)Oc1ccc(-c2ccc(C3COC(c4c(F)cccc4Cl)=N3)cc2)cc1 (stereo not drawn) [Example 62] | – |
| – | 3.48 | 3.54 | CC(=NO)C(C)Oc1ccc(-c2ccc(C3COC(c4c(F)cccc4F)=N3)cc2)cc1 (stereo not drawn) [Example 64] | – |
| – | 4.98 | 4.9 | CCON=C(CC)COc1ccc(-c2ccc(C3COC(c4c(F)cccc4F)=N3)cc2)cc1 (stereo not drawn) [Example 66] | – |
| – | – | – | CCON=C(COc1ccc(-c2ccc(C3COC(c4c(F)cccc4F)=N3)cc2)cc1)C1CC1 (stereo not drawn) [Example 67] | log p (A isomer): 4.72; log p (B isomer): 4.61 |
| 4.55 | – | – | CC(C)C(C)(C)C(=O)COc1ccc(-c2ccc(C3COC(c4c(F)cccc4F)=N3)cc2)cc1 (stereo not drawn) [Example 68] | – |
| 4.47 | – | – | CC(=NOC(C)C)C(C)Oc1ccc(-c2ccc(C3COC(c4c(F)cccc4F)=N3)cc2)cc1 (stereo not drawn) [Example 69] | – |
| 4.55 | – | – | CC(C)(C(=O)COc1ccc(-c2ccc(C3COC(c4c(F)cccc4F)=N3)cc2)cc1)C(Cl)Cl (stereo not drawn) [Example 71] | – |
| – | 5.72 | 5.49 | CCON=C(COc1ccc(-c2ccc(C3COC(c4c(F)cccc4F)=N3)cc2)cc1)C(C)C (stereo not drawn) [Example 78] | – |
| 5.95 | – | – | CCON=C(COc1ccc(-c2ccc(C3COC(c4c(F)cccc4F)=N3)cc2)cc1)C(C)(C)C (stereo not drawn) [Example 79] | – |
| – | 5.1 | 5.17 | CC(COc1ccc(-c2ccc(C3COC(c4c(F)cccc4F)=N3)cc2)cc1)=NOC(C)C (stereo not drawn) [Example 80] | – |
| 4.98 | – | – | CCON=C(C)COc1ccc(-c2ccc(C3COC(c4c(F)cccc4Cl)=N3)cc2)cc1 (stereo not drawn) [Example 81] | – |
| – | 5.15 | – | CC(COc1ccc(-c2ccc(C3COC(c4c(F)cccc4F)=N3)cc2)cc1)=NOCc1ccccc1 (stereo not drawn) [Example 82] | – |
| – | 5.49 | – | CCON=C(C)COc1ccc(-c2ccc(C3COC(c4c(F)cccc4F)=N3)cc2)cc1 (stereo not drawn) [Example 83] | log p (B isomer): 5.56 |
| – | 4.79 | 4.7 | CON=C(C)COc1ccc(-c2ccc(C3COC(c4c(F)cccc4F)=N3)cc2)cc1Cl (stereo not drawn) [Example 86] | – |
| – | 5.39 | 5.19 | CCON=C(C)COc1ccc(-c2ccc(C3COC(c4c(F)cccc4F)=N3)cc2)cc1Cl (stereo not drawn) [Example 87] | – |
| – | 5.04 | 5.13 | C=CCON=C(C)C(C)Oc1ccc(-c2ccc(C3COC(c4c(F)cccc4F)=N3)cc2)cc1 (stereo not drawn) [Example 88] | – |
| – | 4.78 | 4.72 | C=CCON=C(C)COc1ccc(-c2ccc(C3COC(c4c(F)cccc4F)=N3)cc2)cc1 (stereo not drawn) [Example 89] | – |
| 4.87 | – | – | CCCC(C#N)Oc1ccc(-c2ccc(C3COC(c4c(F)cccc4F)=N3)cc2)cc1Cl (stereo not drawn) [Example 91] | – |
| 4.28 | – | – | O=C(COc1ccc(-c2ccc(C3COC(c4c(F)cccc4Cl)=N3)cc2)cc1)c1ccccc1 (stereo not drawn) [Example 93] | – |
| 5.25 | – | – | CON=C(COc1ccc(-c2ccc(C3COC(c4c(F)cccc4Cl)=N3)cc2)cc1)c1ccccc1 (stereo not drawn) [Example 94] | – |

| chromatographic logP | chromatographic logP (A isomer) | chromatographic logP (B isomer) | SMILES | further results |
| --- | --- | --- | --- | --- |
| 4.06 | – | – | CC(C#N)Oc1ccc(-c2ccc(C3COC(c4c(F)cccc4F)=N3)cc2)cc1Cl (stereo not drawn) [Example 95] | – |
| 5.12 | – | – | CCOC(CCOc1ccc(-c2ccc(C3COC(c4c(F)cccc4F)=N3)cc2)cc1Cl)OCC (stereo not drawn) [Example 97] | – |
| 3.77 | – | – | CC1(COc2ccc(-c3ccc(C4COC(c5c(F)cccc5F)=N4)cc3)cc2)OCCO1 (stereo not drawn) [Example 98] | – |
| 5.57 | – | – | CCON=C(C)C(C)(C)Oc1ccc(-c2ccc(C3COC(c4c(F)cccc4F)=N3)cc2)cc1 (stereo not drawn) [Example 99] | – |
| 5.14 | – | – | CON=C(C)C(C)(C)Oc1ccc(-c2ccc(C3COC(c4c(F)cccc4F)=N3)cc2)cc1 (stereo not drawn) [Example 100] | – |
| 4.15 | – | – | CC(=O)C(C)Oc1ccc(-c2ccc(C3COC(c4c(F)cccc4F)=N3)cc2)cc1Cl (stereo not drawn) [Example 101] | – |
| 4.84 | – | – | CC(C)C(C#N)Oc1ccc(-c2ccc(C3COC(c4c(F)cccc4F)=N3)cc2)cc1Cl (stereo not drawn) [Example 102] | – |
| 5.5 | – | – | CON=C(c1cccc(C(F)(F)F)c1)C(C)Oc1ccc(-c2ccc(C3COC(c4c(F)cccc4F)=N3)cc2)cc1 (stereo not drawn) [Example 106] | – |
| 5.01 | – | – | CON=C(c1ccccc1F)C(C)Oc1ccc(-c2ccc(C3COC(c4c(F)cccc4F)=N3)cc2)cc1 (stereo not drawn) [Example 108] | – |
| 5.53 | – | – | CON=C(COc1ccc(-c2ccc(C3COC(c4c(F)cccc4F)=N3)cc2)cc1)c1ccc(C(F)(F)F)cc1 (stereo not drawn) [Example 111] | – |
| – | 5.87 | 5.57 | CCON=C(COc1ccc(-c2ccc(C3COC(c4c(F)cccc4F)=N3)cc2)cc1)c1ccc(C(F)(F)F)cc1 (stereo not drawn) [Example 112] | – |
| 4.51 | – | – | CC(=O)C(C)Oc1ccc(-c2ccc(C3COC(c4ccccc4Cl)=N3)cc2)cc1Cl (stereo not drawn) [Example 113] | – |
| 4.16 | – | – | O=C(COc1ccc(-c2ccc(C3COC(c4c(F)cccc4F)=N3)cc2)cc1)c1ccc(OC(F)F)cc1 (stereo not drawn) [Example 114] | – |
| – | 5.52 | 5.19 | CON=C(COc1ccc(-c2ccc(C3COC(c4c(F)cccc4F)=N3)cc2)cc1)c1cccc(Cl)c1 (stereo not drawn) [Example 115] | – |
| – | 5.89 | 5.54 | CCON=C(COc1ccc(-c2ccc(C3COC(c4c(F)cccc4F)=N3)cc2)cc1)c1cccc(Cl)c1 (stereo not drawn) [Example 116] | – |
| 4.86 | – | – | Cc1cc(C(=O)COc2ccc(-c3ccc(C4COC(c5c(F)cccc5F)=N4)cc3)cc2)ccc1Cl (stereo not drawn) [Example 117] | – |
| – | 5.65 | 5.57 | CCON=C(COc1ccc(-c2ccc(C3COC(c4c(F)cccc4F)=N3)cc2)cc1)c1ccc(Br)cc1 (stereo not drawn) [Example 118] | – |
| – | – | – | CCON=C(COc1ccc(-c2ccc(C3COC(c4c(F)cccc4F)=N3)cc2)cc1)c1ccc(Br)cc1 (stereo not drawn) [Example 119] | log p (A isomer): 6.03; log p (B isomer): 5.72 |
| – | 5.7 | 5.81 | C=CCON=C(C)C(C)Oc1ccc(-c2ccc(C3COC(c4c(F)cccc4Cl)=N3)cc2)cc1 (stereo not drawn) [Example 120] | – |
| – | 5.8 | 4.49 | CON=C(COc1ccc(-c2ccc(C3COC(c4c(F)cccc4F)=N3)cc2)cc1)c1cccc(C(F)(F)F)c1 (stereo not drawn) [Example 121] | – |

| SMILES | chromatographic logP | chromatographic logP (A isomer) | chromatographic logP (B isomer) | further results |
| --- | --- | --- | --- | --- |
| CON=C(COc1ccc(-c2ccc(C3COC(c4c(F)cccc4F)=N3)cc2)cc1)c1ccccc1 (stereo not drawn) [Example 27] | – | 4.74 | – | – |
